Experimental data taken from patent US9701603B2, “Strepsesquitriol, preparation method thereof, and application thereof” (SOUTH CHINA SEA INSTITUTE OF OCEANOLOGY, CHINESE ACADEMY OF …, priority 2013, dated 2017).

Key:
LPS-induced TNFα = assay: Inhibition of the formation of LPS-induced TNFα in RAW264.7 macrophages; format: cell-based
Description: As for determination of inhibitory activity of Strepsesquitriol on the formation of lipopolysaccharide (LPS)-induced TNFα in RAW264.7 macrophages, please refer to the references (Fan, S. Y.; Zeng, H. W.; Pei, Y. H.; Li. L.; Ye, J.; Pan, Y. X.; Zhang, J. G.; Yuan, X.; Zhang, W. D. The anti-inflammatory activities of an extract and compounds isolated from Platycladus orientalis (Linnaeus) Franco in vitro and ex vivo J Ethnopharmacol 2012, 141, 647-652) ENREF 3.

RAW264.7 cells = assay: Cytotoxic activity to RAW264.7 cells; format: cell-based; settings: concentration 100 μM

SMILES	Inhibition rate (%) (LPS-induced TNFα; concentration 100 μM)	inhibition at 3.6 µM (LPS-induced TNFα; Mus musculus, concentration 3.6 μM, read-out: Inhibition rate (%))	inhibition at 11 µM (LPS-induced TNFα; Mus musculus, concentration 11.0 μM, read-out: Inhibition rate (%))	inhibition at 33 µM (LPS-induced TNFα; Mus musculus, concentration 33.0 μM, read-out: Inhibition rate (%))	inhibition at 100 µM (LPS-induced TNFα; Mus musculus, concentration 100 μM, read-out: Inhibition rate (%))	cytotoxic activity (RAW264.7 cells)
Cc1ccc(S(=O)(=O)N[C@@H](Cc2ccccc2)C(=O)CCl)cc1 [TPCK, N-p-tosyl-1-phenylalanine chloromethyl ketone, reference compound]	60.6%					
C[C@H]1C[C@@H](O)[C@]23C[C@H](CC[C@]12O)C(C)(C)[C@]3(C)O [Strepsesquitriol A, (1R,2R,4S,5S,8S,10S)-4,9,9,10-tetramethyl-2,5,10-trihydroxyltricyclo[6.2.1.0^1,5]undecane]		3.4 ± 2.8%	8 ± 1.6%	30.6 ± 1.4%	35.4%	no cytotoxic activity
